Data from US6887878B2, “KMST isoeugenol derivatives and pharmaceutical activity” (Ing-Jun Chen, priority 2003, dated 2005).

What was measured:
[1] = test system: phenylephrine-induced contractions in rat thoracic aorta; assay: LPS-induced vascular hyporeactivity: phenylephrine-induced contractions in rat thoracic aorta; format: in vivo, Wistar rat; settings: pD2 to phenylephrine
[2] = test system: IL-1β, IL-6, IFN-γ and TNF-α; assay: LPS-induced plasma cytokine immunoreactivity; format: in vivo, rat
Protocol: (§1) In brief, Wistar rats weighing 250-300 g were anesthetized with pentobarbital sodium (50 mg kg^−1, i.p.). Following tracheal cannulation, systemic arterial BP and HR were recorded from the femoral artery by a pressure transducer (model P10EZ; Spectramed, Oxnard, Calif., U.S.A.) connected to a recorder (GOULD, Valley View, Ohio, Model P50). Body temperature was maintained at 37° C. by an electric heating pad. A femoral vein was cannulated for intravenous injection of drugs and LPS (10 mg kg^−1).
Blood was collected from venous cannula, injected into ice-cold heparinized Eppendorf tubes and centrifuged at 1500 rpm for 10 min at 4° C. Plasma supernatant was stored at −70° C. until analyzed. Solid phase enzyme immunoassay that specifically detects murine IL-1β, IL-6, IFN-γ and TNF-α was used with a detection limit of >10 pg/ml (Endogen, U.S.A). Pre-treatment with KMST and other agents was performed 15 minutes before intravenous injection of LPS. Blood was collected from venous cannula. Blood glucose was measured with a glucose test strip (Glucotide, Bayer, U.S.A) at 1, 3 and 5 hours.

anesthetized rats [3] = assay: intra-cisternal injection and NTS microinjection, BP and HR; format: in vivo, rat
Protocol: Intra-cisternal injections of KMST (0.3, 0.03 μmol), yohimbine [0.03 μmol), and clonidine (38 pmol), were performed in rats as described by Duan et al (1987). Briefly, rats weighing 250-300 g were anaesthetized with pentobarbital sodium (50 mg kg^−1, i.p.) and mounted in a David-Kopf stereotaxic instrument (Yeh J L. et al., Brain. Res. Bull., 30:641-648, 1993). The calvarium was exposed and a 1 mm diameter trephine hole was drilled 1.8 mm lateral to the coronary and 1.5 mm posterior to the sagittal sutures. A cannula (0.7 mm O.D.) connected to a Hamilton syringe (RN-705, 5051) by PE-50 was advanced 4.7 mm into the brain using the electrode carrier.
Rats were anesthetized and placed in a David-Kopf stereotaxic instrument. The cerebellum was exposed after removing the skin and occipital bone. The NTS coordinates were (reference to lambda) P 5-6 mm, L/R 0.5-1 mm, depth 6-7.5 mm (Wu et al., 1994). NTS injection sites were confirmed by decreasing BP and HR following micro-injection of 1% L-glutamate. […] Pre-treatment with clonidine was performed 15 min before administration of test agents. At the end of experiments, the animals were sacrificed. The brain was removed and sectioned for histological confirmation of the drug application site.

[4] = test system: epinephrine-induced human platelet aggregation; settings: Mustonen et al., 2000; read-out: estimated IC50 to inhibit epinephrine-induced platelet aggregation; cited from earlier work
anesthetized rats [5] = assay: LPS-induced hypotension; format: in vivo, Wistar rat; settings: pretreatment, intravenous LPS
Protocol: as §1

[6] = test system: lipid peroxidation in rat brain homogenate; assay: lipid peroxidation initiated by Fe2+-ascorbic acid in rat brain homogenates (TBARS); format: biochemical; settings: rat brain homogenates; read-out: IC50 inhibiting lipid peroxidation initiated by Fe2+-ascorbic acid
Protocol: Rat brain homogenate was made in 0.9% saline containing 10 mg tissue/ml. The rates of membrane lipid peroxidation were measured by the formation of thiobarbituric acid (TBA)-reactive substance (TBARS). Rat brain homogenates (1 ml) were incubated at 37° C. for 5 min with 10 μl of test compound or vehicle. […] After 30 min of incubation, the reaction was stopped by adding 0.1 ml of 0.2% BHT. TBA reagent was then added and the mixture was heated for 30 min in a boiling water bath. […] The amount of TBARS was quantified using the linear regression obtained from malondialdehyde (MDA) standards.

[7] = agent given after LPS injection (1 hr)
[8] = agent given before LPS injection (30 min)

Structure (SMILES): COC(=O)[C@@H]1[C@H]2C[C@H]3c4[nH]c5ccccc5c4CCN3C[C@@H]2CC[C@@H]1O [Yohimbine]
- pD2 at 3rd hr [1, 7]: 6.12 ± 0.14
- pD2 at 5th hr [1, 7]: 5.13 ± 0.26
- pD2 at 3rd hr [1, 8]: 6.73 ± 0.33
- pD2 at 5th hr [1, 8]: 3.44 ± 0.22
- LPS-induced elevations of IL-1β, IL-6, IFN-γ and TNF-α levels ([2]; 1 mg kg−1, i.v., pretreatment): reduced only IL-1β and TNF-α
- LPS-induced production of IFN-γ ([2]; 1 hour after LPS administration): insignificantly enhanced
- BP and HR after intra-cisternal injection and NTS microinjection (anesthetized rats [3]; central administration): increased BP and HR
- clonidine-induced bradycardia (anesthetized rats [3]; low dose (0.03 μmol)): did not inhibit
- clonidine-induced hypotension (anesthetized rats [3]; low dose (0.03 μmol)): reduced
- IC50 [4]: 0.98 µM
- aortic hyporeactivity and second prolonged hypotensive reaction induced by LPS (anesthetized rats [5]): inhibited
- IC50 [6]: 11.1 ± 0.35 µM
